Paper PMC10847306, “The antibacterial activity and mechanism of a novel peptide MR-22 against multidrug-resistant Escherichia coli” (Frontiers in Cellular and Infection Microbiology, 2024)

Columns and labels:
[1] = test system: E. coli ATCC 25922; experiment: microbe, parasite or virus in culture; details: ATCC 25922, 18 h
Experimental: (§1) The MIC were determined by a micro dilution method in Mueller-Hinton broth (MHB) ([Cuenca-Estrella et al., 2010]). The final concentration of bacterial suspension in MHB were 1.0×10^6 CFU/mL. The final concentration of MR-22 ranged 1 ~ 256 μg/mL in 96 wells plate broth at 37°C for 16~18 h. Imipenem was employed as positive control, bacterial grown without treatment as negative control and MHB as blank control. MIC determination was performed by reading the OD600 nm. Take 100 μL samples in holes that have never seen bacterial growth and place them on the LB agar board. The concentration of MR-22 with no bacterial growth was defined as the MBC.

[2] = test system: E. coli clinical strain E01; experiment: microbe, parasite or virus in culture; details: clinical strain E01, 18 h
Experimental: (§2) The clinical strains used in this study were obtained from a tertiary healthcare facility located in Guiyang, a city situated within the Guizhou Province of China. The E. coli ATCC 25922 was obtained from the Key and Characteristic Laboratory of Modern Pathogen Biology at Guizhou Medical University in Guiyang, China. All strains were stored at –80°C in LB medium and routinely cultured at LB medium at 37°C.
as §1

[3] = test system: E. coli clinical strain E02; experiment: microbe, parasite or virus in culture; details: clinical strain E02, 18 h
Experimental: as §2, §1

[4] = test system: E. coli clinical strain E03; experiment: microbe, parasite or virus in culture; details: clinical strain E03, 18 h
Experimental: as §2, §1

[5] = test system: E. coli clinical strain E04; experiment: microbe, parasite or virus in culture; details: clinical strain E04, 18 h
Experimental: as §2, §1

[6] = test system: E. coli clinical strain E05; experiment: microbe, parasite or virus in culture; details: clinical strain E05, 18 h
Experimental: as §2, §1

[7] = test system: E. coli clinical strain E06; experiment: microbe, parasite or virus in culture; details: clinical strain E06, 18 h
Experimental: as §2, §1

[8] = test system: E. coli clinical strain E07; experiment: microbe, parasite or virus in culture; details: clinical strain E07, 18 h
Experimental: as §2, §1

[9] = test system: E. coli clinical strain E08; experiment: microbe, parasite or virus in culture; details: clinical strain E08, 18 h
Experimental: as §2, §1

[10] = test system: E. coli clinical strain E09; experiment: microbe, parasite or virus in culture; details: clinical strain E09, 18 h
Experimental: as §2, §1

[11] = test system: E. coli clinical strain E10; experiment: microbe, parasite or virus in culture; details: clinical strain E10, 18 h
Experimental: as §2, §1

[12] = test system: E. coli clinical strain E11; experiment: microbe, parasite or virus in culture; details: clinical strain E11, 18 h
Experimental: as §2, §1

[13] = test system: E. coli clinical strain E12; experiment: microbe, parasite or virus in culture; details: clinical strain E12, 18 h
Experimental: as §2, §1

[14] = test system: E. coli clinical strain E13; experiment: microbe, parasite or virus in culture; details: clinical strain E13, 18 h
Experimental: as §2, §1

[15] = test system: E. coli clinical strain E14; experiment: microbe, parasite or virus in culture; details: clinical strain E14, 18 h
Experimental: as §2, §1

[16] = test system: E. coli clinical strain E15; experiment: microbe, parasite or virus in culture; details: clinical strain E15, 18 h
Experimental: as §2, §1

[17] = test system: E. coli clinical strain E16; experiment: microbe, parasite or virus in culture; details: clinical strain E16, 18 h
Experimental: as §2, §1

[18] = test system: E. coli clinical strain E17; experiment: microbe, parasite or virus in culture; details: clinical strain E17, 18 h
Experimental: as §2, §1

[19] = test system: E. coli clinical strain E18; experiment: microbe, parasite or virus in culture; details: clinical strain E18, 18 h
Experimental: as §2, §1

[20] = test system: E. coli clinical strain E19; experiment: microbe, parasite or virus in culture; details: clinical strain E19, 18 h
Experimental: as §2, §1

[21] = test system: E. coli clinical strain E20; experiment: microbe, parasite or virus in culture; details: clinical strain E20, 18 h
Experimental: as §2, §1

[22] = test system: E. coli clinical strain E21; experiment: microbe, parasite or virus in culture; details: clinical strain E21, 18 h
Experimental: as §2, §1

[23] = test system: E. coli clinical strain E22; experiment: microbe, parasite or virus in culture; details: clinical strain E22, 18 h
Experimental: as §2, §1

[24] = test system: E. coli ATCC 25922 and clinically drug resistant isolated strains; experiment: microbe, parasite or virus in culture; type: cell-based, Escherichia coli; details: 18 h
Experimental: as §1

[25] = test system: E. coli ATCC 25922 and E19; experiment: Reactive oxygen species measurement (DCFH-DA); type: cell-based, Escherichia coli; details: DCFH-DA 10 μM, MR-22 1, 2, 4 × MIC, 1 h, 37°C; ex 488/em 525 nm
Experimental: The fluorescence probe 2’,7’-dichlorodihydrofluorescein diacetate (DCFH-DA) was used to measure the intracellular generation of ROS. The bacterial suspension (1.0 × 10^6 CFU/mL) were mixed with DCFH-DA (the final concentration of 10 μM) and incubated for at 37°C 30 min in the dark. After incubation, the suspensions were treated with MR-22 (1, 2, 4 × MIC) at the indicated concentrations for 1 h at 37°C. The fluorescence intensity was evaluated using a multi-function fluorescent enzyme marker with an excitation wavelength of 488 nm and an emission wavelength of 525 nm. N-acetylcysteine (NAC) at a concentration of 24 mM was employed as a control agent for the purpose of quenching the production of reactive oxygen species.

H-MAKRRKKAKKKAKKAKKRRRRR-NH2 [MR-22]
MBC [1]: 16 µg/mL
MIC [1]: 16 µg/mL
MBC [2]: 16 µg/mL
MIC [2]: 16 µg/mL
MBC [3]: 16 µg/mL
MIC [3]: 16 µg/mL
MBC [4]: 16 µg/mL
MIC [4]: 16 µg/mL
MBC [5]: 8 µg/mL
MIC [5]: 8 µg/mL
MBC [6]: 16 µg/mL
MIC [6]: 16 µg/mL
MBC [7]: 8 µg/mL
MIC [7]: 8 µg/mL
MBC [8]: 16 µg/mL
MIC [8]: 16 µg/mL
MBC [9]: 8 µg/mL
MIC [9]: 8 µg/mL
MBC [10]: 16 µg/mL
MIC [10]: 16 µg/mL
MBC [11]: 16 µg/mL
MIC [11]: 16 µg/mL
MBC [12]: 16 µg/mL
MIC [12]: 16 µg/mL
MBC [13]: 16 µg/mL
MIC [13]: 16 µg/mL
MBC [14]: 16 µg/mL
MIC [14]: 16 µg/mL
MBC [15]: 16 µg/mL
MIC [15]: 16 µg/mL
MBC [16]: 4 µg/mL
MIC [16]: 4 µg/mL
MBC [17]: 16 µg/mL
MIC [17]: 16 µg/mL
MBC [18]: 32 µg/mL
MIC [18]: 32 µg/mL
MBC [19]: 8 µg/mL
MIC [19]: 8 µg/mL
MBC [20]: 32 µg/mL
MIC [20]: 32 µg/mL
MBC [21]: 8 µg/mL
MIC [21]: 8 µg/mL
MBC [22]: 8 µg/mL
MIC [22]: 8 µg/mL
MBC [23]: 16 µg/mL
MIC [23]: 16 µg/mL
MIC over all strains tested [24]: 4 ~ 32 μg/mL
ROS accumulation in bacteria [25]: increased significantly
